The values that follow come from ChEMBL document CHEMBL1148292 (J Med Chem, 2004).

One assay has as its target T1, Adenosine receptor A1 (Homo sapiens, UniProt P30542).
T1 sequence (P30542 whole entry): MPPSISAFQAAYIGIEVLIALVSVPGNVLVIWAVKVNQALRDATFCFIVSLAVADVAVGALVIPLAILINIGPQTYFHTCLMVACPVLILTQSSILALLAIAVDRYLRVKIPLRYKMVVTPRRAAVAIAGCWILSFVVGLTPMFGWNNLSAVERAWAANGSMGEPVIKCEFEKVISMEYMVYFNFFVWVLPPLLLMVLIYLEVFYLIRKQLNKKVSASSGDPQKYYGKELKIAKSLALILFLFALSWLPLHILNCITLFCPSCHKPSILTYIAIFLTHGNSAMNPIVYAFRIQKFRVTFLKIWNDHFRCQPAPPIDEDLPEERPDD
In words: Displacement of specific [3H]DPCPX binding at human adenosine A1 receptor expressed in CHO cells. The class given is cell-based.

Another assay addresses Adenosine receptor A2a (Homo sapiens, UniProt P29274). Put plainly: Binding affinity of compound for displacement of specific [3H]ZM-241385 binding at human adenosine A2A receptor expressed in CHO cells. The format is cell-based.
The target of the next assay is T2, Adenosine receptor A3 (Homo sapiens, UniProt P0DMS8).
T2 sequence (P0DMS8 whole entry): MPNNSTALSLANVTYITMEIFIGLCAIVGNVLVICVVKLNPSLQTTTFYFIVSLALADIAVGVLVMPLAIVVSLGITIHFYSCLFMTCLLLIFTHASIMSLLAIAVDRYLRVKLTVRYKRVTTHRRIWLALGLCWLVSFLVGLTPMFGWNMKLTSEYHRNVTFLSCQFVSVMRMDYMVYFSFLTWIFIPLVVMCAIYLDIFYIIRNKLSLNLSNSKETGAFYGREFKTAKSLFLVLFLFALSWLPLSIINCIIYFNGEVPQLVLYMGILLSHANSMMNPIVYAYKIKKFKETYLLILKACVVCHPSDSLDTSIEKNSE
In words: Binding affinity of compound for displacement of specific [3H]MRE3008-F20 binding at human A3 receptors expressed in CHO cells. The class given is cell-based.

The next assay addresses T3, Adenosine receptor A2b (Homo sapiens, UniProt P29275).
T3 sequence (P29275 whole entry): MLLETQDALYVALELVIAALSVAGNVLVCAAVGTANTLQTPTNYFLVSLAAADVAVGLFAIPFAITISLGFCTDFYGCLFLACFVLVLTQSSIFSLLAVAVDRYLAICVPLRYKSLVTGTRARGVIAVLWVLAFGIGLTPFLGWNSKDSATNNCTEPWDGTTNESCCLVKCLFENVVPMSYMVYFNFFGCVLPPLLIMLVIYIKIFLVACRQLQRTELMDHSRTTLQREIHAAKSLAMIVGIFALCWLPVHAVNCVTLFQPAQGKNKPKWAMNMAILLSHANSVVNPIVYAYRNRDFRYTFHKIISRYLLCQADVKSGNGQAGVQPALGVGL
In words: Binding affinity of compound for displacement of [3H]DPCPX binding in HEK293 membranes expressing human A2B adenosine receptors.

Adenosine receptor A2a, sequence (P29274 whole entry): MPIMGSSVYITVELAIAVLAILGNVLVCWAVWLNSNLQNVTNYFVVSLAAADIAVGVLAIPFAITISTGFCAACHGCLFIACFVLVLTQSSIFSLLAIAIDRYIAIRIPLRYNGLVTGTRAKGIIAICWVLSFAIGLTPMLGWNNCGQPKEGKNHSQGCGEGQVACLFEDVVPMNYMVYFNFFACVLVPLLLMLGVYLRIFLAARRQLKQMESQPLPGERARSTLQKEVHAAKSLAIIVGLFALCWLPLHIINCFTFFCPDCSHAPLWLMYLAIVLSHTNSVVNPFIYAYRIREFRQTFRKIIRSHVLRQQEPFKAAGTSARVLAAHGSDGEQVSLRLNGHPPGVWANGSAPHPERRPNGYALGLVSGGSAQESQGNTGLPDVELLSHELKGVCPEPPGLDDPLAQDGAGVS

In turn, `CCCn1c(=O)c2[nH]c(-c3cc(OCC(=O)Nc4ccc(F)cc4)no3)nc2n(CCC)c1=O` gave a Ki on Adenosine receptor A1 of more than 1 µM.

On Adenosine receptor A1, `CCCn1c(=O)c2[nH]c(-c3cc(NC(=O)Cc4ccc(N(C)C)cc4)nn3C)nc2n(CCC)c1=O` returned a Ki of more than 1 µM. Take `CCCn1c(=O)c2[nH]c(-c3cc(OCC(=O)Nc4ccncc4)nn3C)nc2n(CCC)c1=O`: the inhibitory constant (Ki) at Adenosine receptor A2a and on Adenosine receptor A3 was more than 1 µM each time.

On Adenosine receptor A1, `CCCn1c(=O)c2[nH]c(-c3cc(NC(=O)Cc4ccc([N+](=O)[O-])cc4)nn3C)nc2n(CCC)c1=O` returned a Ki of more than 1 µM. In turn, `CCCn1c(=O)c2[nH]c(-c3cc(OCC(=O)Nc4ccc(Br)cc4)nn3C)nc2n(CCC)c1=O` gave a Ki at Adenosine receptor A2b of 0.02 µM. Take `CCCn1c(=O)c2[nH]c(-c3cc(OCC(=O)Nc4ccc(OC)c(OC)c4)no3)nc2n(CCC)c1=O`: on Adenosine receptor A1, the Ki was more than 1 µM.

With `CCCn1c(=O)c2[nH]c(-c3cc(NC(=O)[C@H](C)c4ccccc4)nn3C)nc2n(CCC)c1=O`, the inhibitory constant (Ki) at Adenosine receptor A1 is more than 1 µM. Regarding `CCCn1c(=O)c2[nH]c(-c3cc(OCC(=O)Nc4ccc(C(C)CC)cc4)nn3C)nc2n(CCC)c1=O` (configuration not stated), the Ki on Adenosine receptor A2a and at Adenosine receptor A3 was more than 1 µM each time. As to `CCCn1c(=O)c2[nH]c(-c3cc(C(=O)O)n(C)n3)nc2n(CCC)c1=O`, the Ki at Adenosine receptor A1 is more than 1 µM. In the case of `CCCn1c(=O)c2[nH]c(-c3cc(NC(=O)Cc4ccc(Cl)cc4)nn3C)nc2n(CCC)c1=O`, the affinity on Adenosine receptor A2b corresponds to a Ki of 0.028 µM. `CCCn1c(=O)c2[nH]c(-c3cc(NC(=O)Cc4ccc(OCc5ccccc5C(F)(F)F)cc4)nn3C)nc2n(CCC)c1=O` showed a Ki at Adenosine receptor A2b of 0.013 µM.

In turn, `CCCn1c(=O)c2[nH]c(-c3cc(OCC(=O)Nc4ccc(OC)cc4)no3)nc2n(CCC)c1=O` came in with an inhibitory constant (Ki) at Adenosine receptor A1 of more than 1 µM.

In the case of `CCCn1c(=O)c2[nH]c(-c3cc(OCC(=O)N4CCN(Cc5ccccc5)CC4)nn3C)nc2n(CCC)c1=O`, the Ki at Adenosine receptor A2a and on Adenosine receptor A3 was more than 1 µM throughout.

Compound `CCCn1c(=O)c2[nH]c(-c3cc(NC(=O)Cc4ccccc4)nn3C)nc2n(CCC)c1=O` displayed an inhibition constant Ki on Adenosine receptor A2b of 0.035 µM. In other words, the double-digit nanomolar range. `CCCn1c(=O)c2[nH]c(-c3ccc(OCC(=O)Nc4ccc(I)cc4)nn3)nc2n(CCC)c1=O` came in with a Ki on Adenosine receptor A1 of more than 1 µM. `CCCn1c(=O)c2[nH]c(-c3cc(NC(=O)Cc4ccc5c(c4)OCO5)nn3C)nc2n(CCC)c1=O`: the figures for the Ki at Adenosine receptor A2a and at Adenosine receptor A2b were more than 1 µM and 0.018 µM, respectively. On to `CC(C)Cn1c(=O)c2nc(-c3cc(OCC(=O)Nc4ccc(F)cc4)nn3C)[nH]c2n(CC(C)C)c1=O`, for which the Ki on Adenosine receptor A2a and on Adenosine receptor A3 was more than 1 µM throughout. On to `Cn1nc(NC(=O)Cc2ccccc2)cc1-c1nc2c([nH]1)c(=O)n(C)c(=O)n2C`, for which the Ki on Adenosine receptor A1 is more than 1 µM. As to `CCCn1c(=O)c2[nH]c(-c3cc(NC(=O)Cc4ccc(O)cc4)nn3C)nc2n(CCC)c1=O`, at Adenosine receptor A1, the Ki is more than 1 µM. Still for that read-out and setting: to `CCCn1c(=O)c2[nH]c(-c3cc(NC(=O)[C@@H](C)c4ccccc4)nn3C)nc2n(CCC)c1=O` belongs more than 1 µM; to `CCCn1c(=O)c2[nH]c(-c3cc(NC(=O)CCC(=O)O)nn3C)nc2n(CCC)c1=O`, more than 1 µM. As to `CCCn1c(=O)c2[nH]c(-c3cc(N)n(C)n3)nc2n(CCC)c1=O`, the Ki at Adenosine receptor A2a and on Adenosine receptor A3 was more than 1 µM each time.

For the compound `CCCn1c(=O)c2[nH]c(-c3cc(OCC(=O)N4CCN(c5ccc(F)cc5)CC4)nn3C)nc2n(CCC)c1=O`, at Adenosine receptor A1, the Ki is more than 1 µM. Compound `CCCn1c(=O)c2[nH]c(-c3cc(OCC(=O)Nc4ccc(N5CCOCC5)cc4)nn3C)nc2n(CCC)c1=O` displayed a Ki at Adenosine receptor A1 of more than 1 µM. Still for that read-out and setting: as for `CCCn1c(=O)c2[nH]c(-c3cc(NC(=O)Cc4ccc(CC(C)C)cc4)nn3C)nc2n(CCC)c1=O`, the figure is more than 1 µM. As for `CCCn1c(=O)c2[nH]c(-c3cc(NC(=O)Cc4ccc(OC)c(OC)c4)nn3C)nc2n(CCC)c1=O`, the values for the Ki on Adenosine receptor A2a, at Adenosine receptor A1 and on Adenosine receptor A2b were more than 1 µM, more than 1 µM and 0.038 µM, respectively. `CCCn1c(=O)c2[nH]c(-c3cc(NC(=O)Cc4ccc(O)c(OC)c4)nn3C)nc2n(CCC)c1=O`: the Ki on Adenosine receptor A2a and on Adenosine receptor A1 was more than 1 µM in each case.

`CCCn1c(=O)c2[nH]c(-c3cc(NC(=O)Cc4cccc(OC)c4)nn3C)nc2n(CCC)c1=O` yielded an inhibition constant (Ki) at Adenosine receptor A1 of more than 1 µM.
